Measurements taken from US12617779B2, “Self degradation-type CDK9 inhibitor prodrug and liposome encapsulating same” (Sumitomo Pharma Co., Ltd., priority 2021, dated 2026).

Experiments:
[1] = Evaluation of conversion rate to active form in buffer solution (Experimental Example 1); type: physicochemical
Protocol: For Examples 1 to 16 and Comparative Examples 1 to 14, the attrition rate of the test compound and the conversion rate of the test compound to Alvocidib in a buffer solution were calculated by the following method.
Examples 1 to 16 and Comparative Examples 1 to 14 were each left in buffer solutions adjusted to pH 5.0, 5.5, 6.0, 6.5, 7.0 and 7.4, respectively, at a concentration of 25 umol/L at 37° C. After 0, 0.5, 1, 2 and 3 hours, the residual rates of the compounds of Examples […] and the production rate of Alvocidib were determined by HPLC.
The buffer solutions used at each pH are as follows. • pH 5.0: 50 mM citrate buffer solution (pH 5.0) • pH 5.5: 50 mM citrate buffer solution (pH 5.5) • pH 6.0: 50 mM phosphate buffer solution (pH 6.0) • pH 6.5: 50 mM phosphate buffer solution (pH 6.5) • pH 7.0: 50 mM phosphate buffer solution (pH 7.0) • pH 7.4: 50 mM phosphate buffer solution (pH 7.4)
(§1) The measurement conditions for HPLC are as follows.

[2] = Stability evaluation of solution formulation (Experimental Example 2); type: physicochemical; conditions: for Production rate of Alvocidib / Residual rate: solution formulation
Protocol: For Example 1, Example 2, Example 5, Example 6, Comparative Example 13 and Comparative Example 14, the attrition rate of the test compound and the conversion rate of the test compound to Alvocidib in a solution formulation were calculated by the following method.
Example 1, Example 2, Example 5, Example 6, Comparative Example 13 and Comparative Example 14 were each added to buffer solutions adjusted to pH 3.0, 4.0 and 5.0, respectively, at a concentration of 0.1 mg/mL, and left at 5° C. After 0, 1, 2 and 4 weeks, the residual rates of the compounds of Example 1, Example 2, […], Comparative Example 13 and Comparative Example 14 and the production rate of Alvocidib were determined by HPLC.
The buffer solutions used at each pH are as follows. • pH 3.0: 5 mM tartrate buffer solution/10% sucrose solution (pH 3.0) • pH 4.0: 5 mM tartrate buffer solution/10% sucrose solution (pH 4.0) • pH 5.0: 5 mM tartrate buffer solution/10% sucrose solution (pH 5.0)
as §1
• column: Acquity UPLC BEH C18, 1.7 um, 50×2.1 mm • column temperature: 40° C. • mobile phase: • A: water containing 0.1% trifluoroacetic acid • B: acetonitrile • A/B (min): • 80/20(0)→75/25(3)→0/100(3.5)→0/100(4)→80/20(4.01)→80/20(5) • flow rate: 0.8 mL/min • detection: ultraviolet visible detector, measurement wavelength 254 nm • injection: 3 μL

SMILES: CN1CC[C@H](c2c(OC(=O)N(C)CCN)cc(O)c3c(=O)cc(-c4ccccc4Cl)oc23)[C@H](O)C1 [Comparative Example 13, reference compound]
- Production rate of Alvocidib ([1]; pH5.0, 0 hr): 0.0%
- Residual rate ([1]; pH5.0, 0 hr): 99.8%
- Stability in buffer solution at pH 5 ([1]; pH 5, 37° C., up to 2 or 3 hours): unstable
- Production rate of Alvocidib ([1]; pH5.0, 0.5 hr): 2.2%
- Residual rate ([1]; pH5.0, 0.5 hr): 96.0%
- Production rate of Alvocidib ([1]; pH5.0, 1 hr): 4.1%
- Residual rate ([1]; pH5.0, 1 hr): 94.0%
- Production rate of Alvocidib ([1]; pH5.0, 2 hr): 8.3%
- Residual rate ([1]; pH5.0, 2 hr): 90.8%
- Production rate of Alvocidib ([1]; pH5.0, 3 hr): 12.3%
- Residual rate ([1]; pH5.0, 3 hr): 86.5%
- Production rate of Alvocidib ([1]; pH5.5, 0 hr): 0.0%
- Residual rate ([1]; pH5.5, 0 hr): 98.3%
- Production rate of Alvocidib ([1]; pH5.5, 0.5 hr): 6.5%
- Residual rate ([1]; pH5.5, 0.5 hr): 91.3%
- Production rate of Alvocidib ([1]; pH5.5, 1 hr): 11.9%
- Residual rate ([1]; pH5.5, 1 hr): 85.5%
- Production rate of Alvocidib ([1]; pH5.5, 2 hr): 22.6%
- Residual rate ([1]; pH5.5, 2 hr): 73.9%
- Production rate of Alvocidib ([1]; pH5.5, 3 hr): 32.2%
- Residual rate ([1]; pH5.5, 3 hr): 64.7%
- Production rate of Alvocidib ([1]; pH6.0, 0 hr): 0.0%
- Residual rate ([1]; pH6.0, 0 hr): 98.7%
- Production rate of Alvocidib ([1]; pH6.0, 0.5 hr): 23.8%
- Residual rate ([1]; pH6.0, 0.5 hr): 72.9%
- Production rate of Alvocidib ([1]; pH6.0, 1 hr): 40.3%
- Residual rate ([1]; pH6.0, 1 hr): 56.3%
- Production rate of Alvocidib ([1]; pH6.0, 2 hr): 63.0%
- Residual rate ([1]; pH6.0, 2 hr): 30.4%
- Production rate of Alvocidib ([1]; pH6.0, 3 hr): 75.5%
- Residual rate ([1]; pH6.0, 3 hr): 16.8%
- Production rate of Alvocidib ([1]; pH6.5, 0 hr): 0.2%
- Residual rate ([1]; pH6.5, 0 hr): 99.5%
- Production rate of Alvocidib ([1]; pH6.5, 0.5 hr): 51.7%
- Residual rate ([1]; pH6.5, 0.5 hr): 42.2%
- Production rate of Alvocidib ([1]; pH6.5, 1 hr): 73.5%
- Residual rate ([1]; pH6.5, 1 hr): 20.0%
- Production rate of Alvocidib ([1]; pH6.5, 2 hr): 87.1%
- Residual rate ([1]; pH6.5, 2 hr): 3.8%
- Production rate of Alvocidib ([1]; pH6.5, 3 hr): 90.0%
- Residual rate ([1]; pH6.5, 3 hr): 0.9%
- Production rate of Alvocidib ([1]; pH7.0, 0 hr): 0.5%
- Residual rate ([1]; pH7.0, 0 hr): 97.8%
- Production rate of Alvocidib ([1]; pH7.0, 0.5 hr): 82.2%
- Residual rate ([1]; pH7.0, 0.5 hr): 9.3%
- Production rate of Alvocidib ([1]; pH7.0, 1 hr): 89.7%
- Residual rate ([1]; pH7.0, 1 hr): 1.3%
- Production rate of Alvocidib ([1]; pH7.0, 2 hr): 91.0%
- Residual rate ([1]; pH7.0, 2 hr): 0.0%
- Production rate of Alvocidib ([1]; pH7.0, 3 hr): 91.0%
- Residual rate ([1]; pH7.0, 3 hr): 0.0%
- Production rate of Alvocidib ([1]; pH7.4, 0 hr): 1.3%
- Residual rate ([1]; pH7.4, 0 hr): 97.2%
- Production rate of Alvocidib ([1]; pH7.4, 0.5 hr): 90.5%
- Residual rate ([1]; pH7.4, 0.5 hr): 0.8%
- Production rate of Alvocidib ([1]; pH7.4, 1 hr): 91.2%
- Residual rate ([1]; pH7.4, 1 hr): 0.0%
- Production rate of Alvocidib ([1]; pH7.4, 2 hr): 91.4%
- Residual rate ([1]; pH7.4, 2 hr): 0.0%
- Production rate of Alvocidib ([1]; pH7.4, 3 hr): 92.1%
- Residual rate ([1]; pH7.4, 3 hr): 0.0%
- Stability / conversion to Alvocidib in solution formulation at pH 3 ([2]; pH 3, 5° C., up to 4 weeks): stable
- Stability / conversion to Alvocidib in solution formulation at pH 4 ([2]; pH 4, 5° C., up to 4 weeks): gradually converted to Alvocidib
- production rate of Alvocidib / converted to Alvocidib ([2]; solution formulation pH 5, 5° C., after 4 weeks): about 40%
- Production rate of Alvocidib ([2]; pH3.0, 0 week): 0.1%
- Residual rate ([2]; pH3.0, 0 week): 99.6%
- Production rate of Alvocidib ([2]; pH3.0, 1 week): 0.2%
- Residual rate ([2]; pH3.0, 1 week): 99.3%
- Production rate of Alvocidib ([2]; pH3.0, 2 week): 0.3%
- Residual rate ([2]; pH3.0, 2 week): 99.5%
- Production rate of Alvocidib ([2]; pH3.0, 4 week): 0.6%
- Residual rate ([2]; pH3.0, 4 week): 99.1%
- Production rate of Alvocidib ([2]; pH4.0, 0 week): 0.2%
- Residual rate ([2]; pH4.0, 0 week): 99.4%
- Production rate of Alvocidib ([2]; pH4.0, 1 week): 1.2%
- Residual rate ([2]; pH4.0, 1 week): 98.1%
- Production rate of Alvocidib ([2]; pH4.0, 2 week): 2.2%
- Residual rate ([2]; pH4.0, 2 week): 97.4%
- Production rate of Alvocidib ([2]; pH4.0, 4 week): 4.8%
- Residual rate ([2]; pH4.0, 4 week): 94.4%
- Production rate of Alvocidib ([2]; pH5.0, 0 week): 1.4%
- Residual rate ([2]; pH5.0, 0 week): 98.1%
- Production rate of Alvocidib ([2]; pH5.0, 1 week): 13.7%
- Residual rate ([2]; pH5.0, 1 week): 84.3%
- Production rate of Alvocidib ([2]; pH5.0, 2 week): 25.3%
- Residual rate ([2]; pH5.0, 2 week): 71.7%
- Production rate of Alvocidib ([2]; pH5.0, 4 week): 39.4%
- Residual rate ([2]; pH5.0, 4 week): 55.9%
